Laboratory results from patent US20240252454A1, “COMPOSITION COMPRISING AN INHIBITOR OF MITOCHONDRIAL TRANSCRIPTION” (LEAD DISCOVERY CENTER GMBH, priority 2021, published 2024).

Key:
Experiment in all cases: SRB assay, IMT combined with inhibitor
Type in all cases: cell-based
[1] = tested on: DU145; conditions: DU145 (prostate); concentration series of the labelled inhibitor + fixed concentration of IMT (3S)-1-[(2R)-2-[4-(2-chloro-4-fluoro-phenyl)-2-oxo-chromen-7-yl]oxypropanoyl]piperidine-3-carboxylic acid (Table 3: 40 nM, 120 h); negative=synergistic, positive=antagonistic
Method: (§1) Solforhodamine B assay is carried out as described in Voigt W. (2005) Sulforhodamine B Assay and Chemosensitivity. (Methods in Molecular Medicine™, vol 110. Humana Press. https://doi.org/10.1385/1-59259-869-2:039).
(§2) The determination of changes in cellular biomass was based on the Solforhodamine B assay format, carried out as described in Voigt W. (2005) Sulforhodamine B Assay and Chemosensitivity. (Methods in Molecular Medicine™, vol 110. Humana Press. https://doi.org/10.1385/1-59259-869-2:039).
(§3) All in vitro cell culture experiments were carried out under near physiological glucose concentrations (5 mM) in at least two independent replicates.
(§4) First, 30 different cell lines from 14 different tissue types were tested in the SRB assay format. The cells were examined individually for changes in growth over a period of 120 hours with dilution series of both inhibitors. Untreated cells were used as a negative control group. Subsequently, a dilution series of the respective MAPK signalling pathway SOCs was treated in combination with a fixed concentration of 40 nM (3S)-1-[(2R)-2-[4-(2-chloro-4-fluoro-phenyl)-2-oxo-chromen-7-yl]oxypropanoyl]piperidine-3-carboxylic acid.

[2] = tested on: U2OS; conditions: U2OS (bone); concentration series of the labelled inhibitor + fixed concentration of IMT (3S)-1-[(2R)-2-[4-(2-chloro-4-fluoro-phenyl)-2-oxo-chromen-7-yl]oxypropanoyl]piperidine-3-carboxylic acid (Table 3: 40 nM, 120 h); negative=synergistic, positive=antagonistic
Method: as §1, §2, §3, §4

[3] = tested on: KASUMI-1; conditions: KASUMI-1 (hematological); concentration series of the labelled inhibitor + fixed concentration of IMT (3S)-1-[(2R)-2-[4-(2-chloro-4-fluoro-phenyl)-2-oxo-chromen-7-yl]oxypropanoyl]piperidine-3-carboxylic acid (Table 3: 40 nM, 120 h); negative=synergistic, positive=antagonistic
Method: as §1, §2, §3, §4

[4] = tested on: HCT116; conditions: HCT116 (colon); concentration series of the labelled inhibitor + fixed concentration of IMT (3S)-1-[(2R)-2-[4-(2-chloro-4-fluoro-phenyl)-2-oxo-chromen-7-yl]oxypropanoyl]piperidine-3-carboxylic acid (Table 3: 40 nM, 120 h); negative=synergistic, positive=antagonistic
Method: as §1, §2, §3, §4

[5] = tested on: A375; conditions: A375 (skin); concentration series of the labelled inhibitor + fixed concentration of IMT (3S)-1-[(2R)-2-[4-(2-chloro-4-fluoro-phenyl)-2-oxo-chromen-7-yl]oxypropanoyl]piperidine-3-carboxylic acid (Table 3: 40 nM, 120 h); negative=synergistic, positive=antagonistic
Method: as §1, §2, §3, §4

[6] = tested on: SW620; conditions: SW620 (colon); concentration series of the labelled inhibitor + fixed concentration of IMT (3S)-1-[(2R)-2-[4-(2-chloro-4-fluoro-phenyl)-2-oxo-chromen-7-yl]oxypropanoyl]piperidine-3-carboxylic acid (Table 3: 40 nM, 120 h); negative=synergistic, positive=antagonistic
Method: as §1, §2, §3, §4

[7] = tested on: MV4-11; conditions: MV4-11 (hematological); concentration series of the labelled inhibitor + fixed concentration of IMT (3S)-1-[(2R)-2-[4-(2-chloro-4-fluoro-phenyl)-2-oxo-chromen-7-yl]oxypropanoyl]piperidine-3-carboxylic acid (Table 3: 40 nM, 120 h); negative=synergistic, positive=antagonistic
Method: as §1, §2, §3, §4

[8] = tested on: LOVO; conditions: LOVO (colon); concentration series of the labelled inhibitor + fixed concentration of IMT (3S)-1-[(2R)-2-[4-(2-chloro-4-fluoro-phenyl)-2-oxo-chromen-7-yl]oxypropanoyl]piperidine-3-carboxylic acid (Table 3: 40 nM, 120 h); negative=synergistic, positive=antagonistic
Method: as §1, §2, §3, §4

[9] = tested on: HELA; conditions: HELA (cervix); concentration series of the labelled inhibitor + fixed concentration of IMT (3S)-1-[(2R)-2-[4-(2-chloro-4-fluoro-phenyl)-2-oxo-chromen-7-yl]oxypropanoyl]piperidine-3-carboxylic acid (Table 3: 40 nM, 120 h); negative=synergistic, positive=antagonistic
Method: as §1, §2, §3, §4

[10] = tested on: PANC1; conditions: PANC1 (pancreas); concentration series of the labelled inhibitor + fixed concentration of IMT (3S)-1-[(2R)-2-[4-(2-chloro-4-fluoro-phenyl)-2-oxo-chromen-7-yl]oxypropanoyl]piperidine-3-carboxylic acid (Table 3: 40 nM, 120 h); negative=synergistic, positive=antagonistic
Method: as §1, §2, §3, §4

[11] = tested on: U87MG; conditions: U87MG (brain); concentration series of the labelled inhibitor + fixed concentration of IMT (3S)-1-[(2R)-2-[4-(2-chloro-4-fluoro-phenyl)-2-oxo-chromen-7-yl]oxypropanoyl]piperidine-3-carboxylic acid (Table 3: 40 nM, 120 h); negative=synergistic, positive=antagonistic
Method: as §1, §2, §3, §4

[12] = tested on: BXPC3; conditions: BXPC3 (pancreas); concentration series of the labelled inhibitor + fixed concentration of IMT (3S)-1-[(2R)-2-[4-(2-chloro-4-fluoro-phenyl)-2-oxo-chromen-7-yl]oxypropanoyl]piperidine-3-carboxylic acid (Table 3: 40 nM, 120 h); negative=synergistic, positive=antagonistic
Method: as §1, §2, §3, §4

[13] = tested on: A549; conditions: A549 (lung); concentration series of the labelled inhibitor + fixed concentration of IMT (3S)-1-[(2R)-2-[4-(2-chloro-4-fluoro-phenyl)-2-oxo-chromen-7-yl]oxypropanoyl]piperidine-3-carboxylic acid (Table 3: 40 nM, 120 h); negative=synergistic, positive=antagonistic
Method: as §1, §2, §3, §4

[14] = tested on: A2780; conditions: A2780 (ovary); concentration series of the labelled inhibitor + fixed concentration of IMT (3S)-1-[(2R)-2-[4-(2-chloro-4-fluoro-phenyl)-2-oxo-chromen-7-yl]oxypropanoyl]piperidine-3-carboxylic acid (Table 3: 40 nM, 120 h); negative=synergistic, positive=antagonistic
Method: In two studies, the ovarian cell line A2780 was tested for 72 hours with the IMT N,N-dimethyl-2-[4-(o-tolyl)-2-oxo-chromen-7-yl]oxy-propanamide (30 μM-15 nM) and the MEK inhibitor Selumetinib (30 μM-10 nM), or with the IMT 1-[2-[4-(2-chlorophenyl)-2-oxo-chromen-7-yl]oxypropanoyl]piperidine-3-sulfonamide (30 μM-15 nM) and the MEK inhibitor PD318088 (30 μM-10 nM).
as §1, §2, §3, §4

C[C@H](Nc1ncnc2nc[nH]c12)c1cc2cccc(Cl)c2c(=O)n1-c1ccccc1 [Duvelisib] was tested, and the “difference between the calculated combinatorial index (BLISS) and the observed combinatorial effect” value [1] was 0.0362, the “difference between the calculated combinatorial index (BLISS) and the observed combinatorial effect” value [2] was −0.0126 and the “difference between the calculated combinatorial index (BLISS) and the observed combinatorial effect” value [3] was −0.0237. For the same molecule, the “difference between the calculated combinatorial index (BLISS) and the observed combinatorial effect” value [4] was −0.0213, the “difference between the calculated combinatorial index (BLISS) and the observed combinatorial effect” value [5] was −0.0153 and the “difference between the calculated combinatorial index (BLISS) and the observed combinatorial effect” value [6] was −0.0623. For the same molecule, the “difference between the calculated combinatorial index (BLISS) and the observed combinatorial effect” value [7] was 0.0611, the “difference between the calculated combinatorial index (BLISS) and the observed combinatorial effect” value [8] was −0.0219 and the “difference between the calculated combinatorial index (BLISS) and the observed combinatorial effect” value [9] was −0.0666. For the same molecule, the “difference between the calculated combinatorial index (BLISS) and the observed combinatorial effect” value [10] was −0.0096, the “difference between the calculated combinatorial index (BLISS) and the observed combinatorial effect” value [11] was 0.0433 and the “difference between the calculated combinatorial index (BLISS) and the observed combinatorial effect” value [12] was −0.0109. The “difference between the calculated combinatorial index (BLISS) and the observed combinatorial effect” value [13] was −0.0092 and the “difference between the calculated combinatorial index (BLISS) and the observed combinatorial effect” value [14] was 0.0081.
For CS(=O)(=O)N1CCN(Cc2cc3nc(-c4cccc5[nH]ncc45)nc(N4CCOCC4)c3s2)CC1 [GDC-0941, 2-(1H-Indazol-4-yl)-6-[[4-(methylsulfonyl)-1-piperazinyl]methyl]-4-(4-morpholinyl)thieno[3,2-d]pyrimidine], the “difference between the calculated combinatorial index (BLISS) and the observed combinatorial effect” value [1] was 0.0436, the “difference between the calculated combinatorial index (BLISS) and the observed combinatorial effect” value [2] was 0.0451 and the “difference between the calculated combinatorial index (BLISS) and the observed combinatorial effect” value [3] was 0.0051. The “difference between the calculated combinatorial index (BLISS) and the observed combinatorial effect” value [4] was −0.0464, the “difference between the calculated combinatorial index (BLISS) and the observed combinatorial effect” value [5] was −0.0654 and the “difference between the calculated combinatorial index (BLISS) and the observed combinatorial effect” value [6] was 0.0303. The “difference between the calculated combinatorial index (BLISS) and the observed combinatorial effect” value [7] was 0.0272, the “difference between the calculated combinatorial index (BLISS) and the observed combinatorial effect” value [8] was −0.0539 and the “difference between the calculated combinatorial index (BLISS) and the observed combinatorial effect” value [9] was −0.0531. The “difference between the calculated combinatorial index (BLISS) and the observed combinatorial effect” value [10] was −0.0128, the “difference between the calculated combinatorial index (BLISS) and the observed combinatorial effect” value [11] was 0.1078 and the “difference between the calculated combinatorial index (BLISS) and the observed combinatorial effect” value [12] was 0.0704. The “difference between the calculated combinatorial index (BLISS) and the observed combinatorial effect” value [13] was 0.0023 and the “difference between the calculated combinatorial index (BLISS) and the observed combinatorial effect” value [14] was 0.0077.
With O=C(c1cc(Cc2n[nH]c(=O)c3ccccc23)ccc1F)N1CCN(C(=O)C2CC2)CC1 [Olaparib] the “difference between the calculated combinatorial index (BLISS) and the observed combinatorial effect” value [1] was 0.0557, the “difference between the calculated combinatorial index (BLISS) and the observed combinatorial effect” value [2] was −0.0034 and the “difference between the calculated combinatorial index (BLISS) and the observed combinatorial effect” value [3] was −0.0415. The “difference between the calculated combinatorial index (BLISS) and the observed combinatorial effect” value [4] was −0.0690, the “difference between the calculated combinatorial index (BLISS) and the observed combinatorial effect” value [5] was −0.0650 and the “difference between the calculated combinatorial index (BLISS) and the observed combinatorial effect” value [6] was 0.0198. The “difference between the calculated combinatorial index (BLISS) and the observed combinatorial effect” value [7] was 0.0407, the “difference between the calculated combinatorial index (BLISS) and the observed combinatorial effect” value [8] was −0.0819 and the “difference between the calculated combinatorial index (BLISS) and the observed combinatorial effect” value [9] was −0.0307. The “difference between the calculated combinatorial index (BLISS) and the observed combinatorial effect” value [10] was −0.0430, the “difference between the calculated combinatorial index (BLISS) and the observed combinatorial effect” value [11] was 0.0523 and the “difference between the calculated combinatorial index (BLISS) and the observed combinatorial effect” value [12] was 0.0315. For the same molecule, the “difference between the calculated combinatorial index (BLISS) and the observed combinatorial effect” value [13] was 0.0174 and the “difference between the calculated combinatorial index (BLISS) and the observed combinatorial effect” value [14] was −0.0656.
In the case of O=C(NOC[C@H](O)CO)c1ccc(F)c(F)c1Nc1ccc(I)cc1F [PD 0325901, (R)—N-(2,3-dihydroxypropoxy)-3,4-difluoro-2-((2-fluoro-4-iodophenyl)amino)benzamide], the “difference between the calculated combinatorial index (BLISS) and the observed combinatorial effect” value [1] is reported as −0.0558, the “difference between the calculated combinatorial index (BLISS) and the observed combinatorial effect” value [2] is reported as 0.0014 and the “difference between the calculated combinatorial index (BLISS) and the observed combinatorial effect” value [3] is reported as −0.0286. For the same molecule, the “difference between the calculated combinatorial index (BLISS) and the observed combinatorial effect” value [4] was −0.0042, the “difference between the calculated combinatorial index (BLISS) and the observed combinatorial effect” value [5] was 0.0418 and the “difference between the calculated combinatorial index (BLISS) and the observed combinatorial effect” value [6] was 0.0316. The “difference between the calculated combinatorial index (BLISS) and the observed combinatorial effect” value [7] was 0.0637, the “difference between the calculated combinatorial index (BLISS) and the observed combinatorial effect” value [8] was −0.0229 and the “difference between the calculated combinatorial index (BLISS) and the observed combinatorial effect” value [9] was −0.2549. For the same molecule, the “difference between the calculated combinatorial index (BLISS) and the observed combinatorial effect” value [10] was 0.1000, the “difference between the calculated combinatorial index (BLISS) and the observed combinatorial effect” value [11] was 0.0604 and the “difference between the calculated combinatorial index (BLISS) and the observed combinatorial effect” value [12] was 0.0495. For the same molecule, the “difference between the calculated combinatorial index (BLISS) and the observed combinatorial effect” value [13] was −0.0245 and the “difference between the calculated combinatorial index (BLISS) and the observed combinatorial effect” value [14] was −0.0318.
Cn1cnc2c(F)c(Nc3ccc(Br)cc3Cl)c(C(=O)NOCCO)cc21 [Selumetinib] was tested, and the “difference between the calculated combinatorial index (BLISS) and the observed combinatorial effect” value [1] was 0.0383, the “difference between the calculated combinatorial index (BLISS) and the observed combinatorial effect” value [2] was −0.1010 and the “difference between the calculated combinatorial index (BLISS) and the observed combinatorial effect” value [3] was −0.0114. The “difference between the calculated combinatorial index (BLISS) and the observed combinatorial effect” value [4] was −0.0774, the “difference between the calculated combinatorial index (BLISS) and the observed combinatorial effect” value [5] was 0.0423 and the “difference between the calculated combinatorial index (BLISS) and the observed combinatorial effect” value [6] was −0.0547. For the same molecule, the “difference between the calculated combinatorial index (BLISS) and the observed combinatorial effect” value [7] was 0.0150, the “difference between the calculated combinatorial index (BLISS) and the observed combinatorial effect” value [8] was −0.0877 and the “difference between the calculated combinatorial index (BLISS) and the observed combinatorial effect” value [9] was 0.0054. For the same molecule, the “difference between the calculated combinatorial index (BLISS) and the observed combinatorial effect” value [10] was 0.0867, the “difference between the calculated combinatorial index (BLISS) and the observed combinatorial effect” value [11] was 0.0486 and the “difference between the calculated combinatorial index (BLISS) and the observed combinatorial effect” value [12] was −0.0219. The “difference between the calculated combinatorial index (BLISS) and the observed combinatorial effect” value [13] was −0.0519 and the “difference between the calculated combinatorial index (BLISS) and the observed combinatorial effect” value [14] was −0.0046.
